Here are results for 28 compounds from patent US7718669B2, “Triazolopyridine derivatives as inhibitors of lipases and phospholipases” (Sanofi-Aventis, priority 2005, dated 2010).

One experiment concerns the target T1, hormone sensitive lipase, HSL (Rattus norvegicus, UniProt P15304).
T1 construct: Isolated rat fat cells are obtained from epididymal adipose tissue; from tissue; host or cells: fat cells from epididymal adipose tissue of male Wistar rats
T1 sequence (P15304 301-1068 limits assumed): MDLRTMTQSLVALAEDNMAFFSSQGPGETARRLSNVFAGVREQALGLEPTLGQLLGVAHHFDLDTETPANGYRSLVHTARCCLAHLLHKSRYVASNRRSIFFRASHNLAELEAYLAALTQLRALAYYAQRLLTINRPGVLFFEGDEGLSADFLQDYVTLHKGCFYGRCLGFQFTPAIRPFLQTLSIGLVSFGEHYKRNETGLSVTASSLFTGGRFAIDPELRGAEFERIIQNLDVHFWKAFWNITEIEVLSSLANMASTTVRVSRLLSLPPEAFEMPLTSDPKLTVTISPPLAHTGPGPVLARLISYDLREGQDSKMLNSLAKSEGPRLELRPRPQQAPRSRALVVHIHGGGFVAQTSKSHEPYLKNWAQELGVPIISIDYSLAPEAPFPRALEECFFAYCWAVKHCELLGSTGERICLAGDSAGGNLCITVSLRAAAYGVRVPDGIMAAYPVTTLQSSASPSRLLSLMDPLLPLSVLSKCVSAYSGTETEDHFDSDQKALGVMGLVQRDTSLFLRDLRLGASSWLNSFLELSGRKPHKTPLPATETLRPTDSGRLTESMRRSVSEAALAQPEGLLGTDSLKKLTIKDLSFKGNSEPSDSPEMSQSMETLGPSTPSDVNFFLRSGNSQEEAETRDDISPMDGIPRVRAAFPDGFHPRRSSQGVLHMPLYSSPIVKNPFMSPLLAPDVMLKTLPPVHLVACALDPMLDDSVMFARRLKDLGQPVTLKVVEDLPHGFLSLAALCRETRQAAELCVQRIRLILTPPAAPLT
The experiment is described as follows: HSL inhibition assay. In kind it is biochemical. The conditions noted are these: partially purified HSL from rat fat cells; [3H]trioleoylglycerol substrate; 37° C. for 30 min. The protocol:
Preparation of the Partially Purified HSL:
Isolated rat fat cells are obtained from epididymal adipose tissue from untreated male rats (Wistar, 220-250 g) by collagenase treatment in accordance with published methods (e.g. S, Nilsson et al., Anal. Biochem. 158, 1986, 399-407; G. Fredrikson et al., J. Biol. Chem. 256, 1981, 6311-6320; H. Tornquist et al., J. Biol. Chem. 251, 1976, 813-819). The fat cells from 10 rats are washed three times by flotation with 50 ml of homogenization buffer ([…] Tris/HCl, pH 7.4, 0.25 M sucrose, 1 mM ETDA, 1 mM DTT, 10 μg/ml leupeptin, 10 μg/ml antipain, 20 μg/ml pepstatin) each time and finally taken up in 10 ml of homogenization buffer. The fat cells are homogenized in a Teflon-in-glass homogenizer (Braun-Melsungen) by 10 strokes at 1500 rpm and 15° C. The homogenate is centrifuged (Sorvall SM24 tubes, 5000 rpm, 10 min, 4° C.). The subnatant between the layer of fat at the top and the pellet is removed and the centrifugation is repeated. The subnatant resulting therefrom is centrifuged again (Sorvall SM24 tubes, 20 000 rpm, 45 min, 4° C.). […] After incubation at 4° C. for 60 min (shaking at intervals of 15 min), the mixture is centrifuged (Sorvall SM24 tubes, 3000 rpm, 10 min, 4° C.). The supernatant is adjusted to pH 5.2 by adding glacial acetic acid and is incubated at 4° C. for 30 min. The precipitates are collected by centrifugation (Sorvall SS34, 12 000 rpm, 10 min, 4° C.) and suspended in 2.5 ml of 20 mM Tris/HCl, pH 7.0, 1 mM EDTA, 65 mM NaCl, 13% sucrose, 1 mM DTT, 10 μg/ml leupeptin/pepstatin/antipain. The suspension is dialyzed against 25 mM Tris/HCl, pH 7.4, 50% glycerol, 1 mM DTT, 10 μg/ml leupeptin, pepstatin, antipain at 4° C. overnight and then loaded onto a hydroxiapatite column (0.1 g per 1 ml of suspension, equilibrated with 10 mM potassium phosphate, pH 7.0, 30% glycerol, 1 mM DTT). The column is washed with four volumes of equilibration buffer at a flow rate of 20 to 30 ml/h. The HSL is eluted with one volume of equilibration buffer containing 0.5 M potassium phosphate and then dialyzed (see above) and concentrated 5- to 10-fold by ultrafiltration (Amicon Diaflo PM 10 Filter) at 4° C. The partially purified HSL can be stored at −70° C. for 4 to 6 weeks.
To prepare the substrate, 25-50 μCi of [3H]trioleoylglycerol (in toluene), 6.8 μmol of unlabeled trioleoylglycerol and 0.6 mg of phospholipids (phosphatidylcholine/phosphatidylinositol 3:1 w/v) are mixed, dried with N2 and then taken up in 2 ml of 0.1 M KPi (pH 7.0) by ultrasound treatment (Branson 250, microtip, setting 1-2, 2×1 min with an interval of 1 min). After addition of 1 ml of KPi and renewed ultrasound treatment (4×30 sec on ice with intervals of 30 sec), 1 ml of 20% BSA (in KPi) is added (final concentration of trioleoylglycerol 1.7 mM). For the reaction, 100 μl of substrate solution are pipetted into 100 μl of HSL solution (HSL prepared as above, diluted in 20 mM KPi, pH 7.0, 1 mM EDTA, 1 mM DTT, 0.02% BSA, 20 μg/ml pepstatin, 10 μg/ml leupeptin) and incubated at 37° C. for 30 min. Addition of 3.25 ml of methanol/chloroform/heptane (10:9:7) and of 1.05 ml of 0.1 M K2CO3, 0.1 M boric acid (pH 10.5) is followed by thorough mixing and finally centrifugation (800×g, 20 min). After phase separation, one equivalent of the upper phase (1 ml) is removed and the radioactivity is determined by liquid scintillation measurement.
Substances are normally tested in four independent mixtures. The inhibition of the HSL enzymatic activity by a test substance is determined by comparing with an uninhibited control reaction. The IC50 is calculated from an inhibition plot with at least 10 concentrations of the test substance. The GRAPHIT, Elsevier-BIOSOFT software package is used to analyze the data.
Consider `CC1(C)CCCN(C(=O)n2nnc3ncccc32)C1` [Example 50], for which 0.367 µM corresponded to half-maximal inhibition (IC50).

Turning to `CC1CCN(C(=O)n2nnc3nc(Cl)ccc32)CC1` [Example 1, (5-Chloro-[1,2,3]triazolo[4,5-b]pyridin-1-yl)-(4-methylpiperidin-1-yl)-methanone], the IC50 is 0.5 µM.

Turning to `O=C(N1CCC(c2ccccc2F)CC1)n1nnc2ncccc21` [Example 43], half-maximal inhibition (IC50) required 0.763 µM.

For `CCCCCCCCN1CCN(C(=O)n2nnc3ncccc32)CC1` [Example 51], it took 0.237 µM to reach half-maximal inhibition (IC50).

`CC1CCN(C(=O)n2nnc3ncc(Cl)cc32)CC1` [Example 5, (6-Chloro-[1,2,3]triazolo[4,5-b]pyridin-1-yl)-(4-methyl-piperidin-1-yl)-methanone] displayed an IC50 of 0.3 µM.

The compound `O=C(N1CCN(c2ccc(OCc3ccccc3)cc2)CC1)n1nnc2ncccc21` [Example 41] displayed a 50% inhibitory concentration (IC50) of 0.062 µM.

Consider `O=C(C1CCC2(CC1)CCN(c1ccccc1)C2=O)n1nnc2ncccc21` (stereo not shown) [Example 35], for which the IC50 was 0.78 µM.

With `Cc1cccc(C)c1N1CCN(C(=O)n2nnc3ncccc32)CC1` [Example 14], the midpoint of inhibition, the IC50, lay at 0.607 µM.

Turning to `CC1CCN(C(=O)n2nnc3cccnc32)CC1` [Example 62], the IC50 amounted to 0.16 µM.

In turn, `O=C(N1CCC(c2cccc(C(F)(F)F)c2)CC1)n1nnc2ncccc21` [Example 53] displayed a concentration for half-maximal inhibition (IC50) of 0.826 µM.

As for `CCCC1CCN(C(=O)n2nnc3ncccc32)CC1` [Example 31], the IC50 stood at 0.136 µM.

Turning to `O=C(N1CCC(c2ccc3ccccc3c2)CC1)n1nnc2ncccc21` [Example 33], the IC50 was 0.112 µM.

In turn, `CC1CCN(C(=O)n2nnc3ccc(Cl)nc32)CC1` [Example 61, (5-chloro-[1,2,3]triazolo[4,5-b]pyridin-3-yl)-(4-methylpiperidin-1-yl)-methanone] yielded an IC50 of 0.03 µM.

For the compound `Cc1ccccc1N1CCN(C(=O)n2nnc3ncccc32)CC1` [Example 25], the IC50 stood at 0.215 µM.

`O=C(N1CCC(CCc2ccccc2)CC1)n1nnc2ncccc21` [Example 48] gave an IC50 of 0.662 µM.

Consider `O=C(N1CCc2ccccc2C1)n1nnc2ncccc21` [Example 4], for which the IC50 stood at 0.07 µM.

The compound `O=C(N1CCc2ccccc2C1)n1nnc2cccnc21` [Example 64] displayed an IC50 of 0.03 µM.

In turn, `O=C(N1CCc2ccccc2C1)n1nnc2ccc(Cl)nc21` [Example 66, (5-chloro-[1,2,3]triazolo[4,5-b]pyridin-3-yl)-(3,4-dihydro-1H-isoquinolin-2-yl)-methanone] returned an IC50 of 0.15 µM.

`CC1CCCN(C(=O)n2nnc3cccnc32)C1` (stereo not shown) [Example 63] returned an IC50 of 0.965 µM.

In the case of `COC(=O)c1ccc(C2CCN(C(=O)n3nnc4ncccc43)CC2)cc1` [Example 23], the IC50 was 0.45 µM.

`CCOc1ccc(N2CCN(C(=O)n3nnc4ncccc43)CC2)cc1` [Example 37] came in with an IC50 of 0.576 µM.

In the case of `CC1CC(C)CN(C(=O)n2nnc3ncccc32)C1` (stereo not shown) [Example 30], the IC50 came out at 0.585 µM.

`O=C(N1CCN(c2ccc(-c3ccccc3)cc2)CC1)n1nnc2ncccc21` [Example 26] came in with an IC50 of 0.198 µM.

Regarding `Nc1ccc(C2CCN(C(=O)n3nnc4ncccc43)CC2)cc1` [Example 42], half-maximal inhibition (IC50) was put at 0.159 µM.

Regarding `CCCCCN(CCCCC)C(=O)n1nnc2ncccc21` [Example 24], the IC50 was determined as 0.175 µM.

A further experiment has as its target T2, endothelial lipase (EL) (Homo sapiens, UniProt Q9Y5X9).
T2 construct: made in house; host or cells: recombinant CHO or HEK293 cell lines; concentrated conditioned medium
T2 sequence (Q9Y5X9 21-500): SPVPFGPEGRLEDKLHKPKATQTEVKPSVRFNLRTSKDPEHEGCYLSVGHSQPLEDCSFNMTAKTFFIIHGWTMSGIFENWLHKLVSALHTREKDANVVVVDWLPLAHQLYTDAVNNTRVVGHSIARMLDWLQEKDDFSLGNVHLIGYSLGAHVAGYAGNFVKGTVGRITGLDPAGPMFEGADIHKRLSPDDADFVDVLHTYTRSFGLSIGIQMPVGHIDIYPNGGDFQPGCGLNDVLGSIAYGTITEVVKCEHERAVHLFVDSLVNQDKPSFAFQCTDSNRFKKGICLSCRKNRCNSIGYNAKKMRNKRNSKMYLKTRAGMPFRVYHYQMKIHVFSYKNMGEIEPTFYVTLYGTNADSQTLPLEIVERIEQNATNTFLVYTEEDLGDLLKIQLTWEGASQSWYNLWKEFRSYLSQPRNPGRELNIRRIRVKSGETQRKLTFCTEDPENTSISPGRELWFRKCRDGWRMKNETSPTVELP
Nature of the experiment: EL inhibition assay. In kind it is biochemical. The conditions noted are these: EL from conditioned medium of recombinant cell lines (CHO, HEK293); Bodipy phospholipid substrate; 37° C. for 60 minutes. From the text:
EL is released as secretory protein in high concentration into cell culture medium (conditioned medium) by recombinant cell lines (CHO, HEK293). This is employed as enzyme solution after concentration.
The phospholipase-specific substrate 1,2-bis(4,4-difluoro-5,7-dimethyl-4-bora-3a,4a-diaza-s-indacene-3-undecanoyl)-sn-glycero-3-phosphocholine, (manufacturer Molecular Probes) is used to characterize the enzymatic activity of endothelial lipase and the effect of inhibitors. Hydrolysis of the A1 ester linkage of this phospholipid by the enzyme liberates the fluorescent dye Bodipy which can be detected after separation by thin-layer chromatography on an HPTLC plate (silica gel 60, Merck) or directly in the reaction vessel by measuring the fluorescence. The substrate solution is prepared by taking up 100 μg of 1,2-bis(4,4-difluoro-5,7-dimethyl-4-bora-3a,4a-diaza-s-indacene-3-undecanoyl)-sn-glycero-3-phospho-choline (manufacturer Molecular Probes), 2.4 mg of tripalmitin (Sigma) and 7.9 mg of DOP-choline (1,2-dioleoyl-sn-glycero-3-phosphocholine) in 393 μl of chloroform and then transferring 157 μl into a fresh reaction vessel. After evaporation of the solvent, the lipid mixture is dissolved in 4 ml of 200 mM TRIS-HCl, 150 mM sodium chloride, pH=7.4, by sonication twice. The subsequent enzymic reaction takes place at 37° C. for 60 minutes. For this purpose, 45 μl of the substrate solution are incubated with 1 μl of inhibitor of appropriate concentration (dissolved in DMSO, pure DMSO solution is used as control) and 5 μl of enzyme solution (conditioned medium). Then 3 μl of the assay mixture are loaded onto an HPTLC plate (silica gel 60, Merck), and the liberated fluorescent dye is separated for detection with an eluent (diethyl ether:petroleum benzene:acetic acid [78:22:1]). After evaporation of the eluent, the plate is read in a fluorescence scanner. An increased release of the fluorescent dye in the uninhibited reaction is to be observed as a measure of the enzymic activity.
The enzymatic activity is reduced as a function of the inhibitor concentration used, and the inhibitor concentration at which a half-maximum enzymic activity is observed is called IC50.
As to `Cc1ccccc1CNC(=O)n1nnc2cc(Cl)cnc21` [Example 68], the IC50 came to 1.24 µM.

As to `Cc1ccccc1CNC(=O)n1nnc2ncc(Cl)cc21` [Example 55], the IC50 was 0.58 µM.

For `Cc1ccccc1CNC(=O)n1nnc2nc(Cl)ccc21` [Example 54], the IC50 worked out at 0.74 µM.
